According to ChEMBL document CHEMBL1926606, “Cannabinomimetic lipid from a marine cyanobacterium” (J Nat Prod, 2011):
Calls of active or inactive are those of the source. The calls are words filed in the database; no cut-off is given here.

Assays:
NCI-H460 [1] = test: Cytotoxicity against human H460 cells assessed as cell survival up to 20 ug/ml; assay type: functional, cell-based
Cannabinoid receptor 1 = Cannabinoid receptor 1 (Homo sapiens, UniProt P21554); test: Displacement of [3H]CP55940 from human recombinant CB1 receptor expressed in HEK293 cells after 90 mins; assay type: cell-based
Cannabinoid receptor 2 = Cannabinoid receptor 2 (Homo sapiens, UniProt P34972); test: Displacement of [3H]CP55940 from human recombinant CB2 receptor expressed in HEK293 cells after 90 mins; assay type: cell-based
NCI-H460 [2] = test: Cytotoxicity against human H460 cells assessed as cell survival at 50 ug/ml; assay type: functional; settings: read-out: Activity
NCI-H460 [3] = test: Cytotoxicity against human H460 cells assessed as cell survival at 5 ug/ml; assay type: functional; settings: read-out: Activity
Homo sapiens = organism: Homo sapiens; test: Selectivity ratio of IC50 for human recombinant CB1 receptor to IC50 for human recombinant CB2 receptor

Chain of Cannabinoid receptor 2 (P34972 whole entry): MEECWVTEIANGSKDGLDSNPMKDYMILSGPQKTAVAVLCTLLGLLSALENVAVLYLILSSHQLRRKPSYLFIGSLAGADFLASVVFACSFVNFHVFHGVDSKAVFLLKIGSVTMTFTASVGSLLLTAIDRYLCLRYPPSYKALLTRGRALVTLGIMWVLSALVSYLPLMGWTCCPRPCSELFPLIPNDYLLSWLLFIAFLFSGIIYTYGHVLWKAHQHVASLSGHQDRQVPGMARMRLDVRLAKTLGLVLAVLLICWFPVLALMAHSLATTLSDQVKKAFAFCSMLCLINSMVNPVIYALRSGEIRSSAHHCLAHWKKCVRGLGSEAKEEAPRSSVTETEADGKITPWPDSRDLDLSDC
Chain of Cannabinoid receptor 1 (P21554 whole entry): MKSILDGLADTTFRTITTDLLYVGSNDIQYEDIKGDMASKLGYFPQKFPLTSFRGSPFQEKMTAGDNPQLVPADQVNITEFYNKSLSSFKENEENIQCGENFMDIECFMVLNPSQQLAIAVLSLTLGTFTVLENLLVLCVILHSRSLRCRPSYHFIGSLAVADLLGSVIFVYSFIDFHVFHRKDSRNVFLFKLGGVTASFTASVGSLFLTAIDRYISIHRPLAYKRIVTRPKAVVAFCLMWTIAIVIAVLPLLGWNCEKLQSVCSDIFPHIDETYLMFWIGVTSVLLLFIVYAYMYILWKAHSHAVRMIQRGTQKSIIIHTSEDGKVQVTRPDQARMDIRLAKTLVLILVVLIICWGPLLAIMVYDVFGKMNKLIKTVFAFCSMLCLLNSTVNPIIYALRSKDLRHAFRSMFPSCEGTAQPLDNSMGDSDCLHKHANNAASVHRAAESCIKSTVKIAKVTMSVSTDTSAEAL

| Structure (SMILES) | Activity (NCI-H460 [1]) | IC50 (Cannabinoid receptor 1) [µM] | IC50 (Cannabinoid receptor 2) [µM] | Ki (Cannabinoid receptor 1) [µM] | Ki (Cannabinoid receptor 2) [µM] | viability at 50 µg/mL (NCI-H460 [2]) [%] | viability at 5 µg/mL (NCI-H460 [3]) [%] | Ratio IC50 (Homo sapiens) |
| --- | --- | --- | --- | --- | --- | --- | --- | --- |
| C=C(CCCCCCCCCCCCC)CCCC(=O)O/C=C\COC(C)=O | inactive | > 10 | > 10 | – | – | – | – | – |
| CCCCC/C=C\C/C=C\C/C=C\C/C=C\CCCC(=O)N[C@@H](CO)C(=O)O | – | – | – | > 10 | > 10 | – | – | – |
| CCCCCCCCCCCCC/C=C/CCC(=O)N(C)[C@H](CO)COC [SERINOLAMIDE A] | – | 2.3 | > 10 | 1.3 | – | 0 | 60 | > 5 |
